Experimental data reported in patent publication US6399654B1, “Biflavanoids and derivatives thereof as antiviral agents” (priority 1995, dated 2002).
Where a name gives a salt, the structure may show the parent alone. Read-outs that look alike come from different tables or passages of the source.

Key:
Hepatitis B Virus (HBV) [1] = test: Inhibition of HBV replication in 2.2.15 cells, extracellular (virion) HBV DNA; settings: for SI (CC50/EC90), HBV Virion: selective index; for fold less active/potent than robustaflavone against HBV: in vitro assay against HBV;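 on all read-outs here: extracellular virion HBV DNA in culture medium measured by slot blot hybridization with a 32P-labeled HBV probe, quantified against HBV DNA standards, after 9 days of daily dosing, compared with day 0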
Protocol: (§1) Test compounds were added daily for a nine continuous day period; the culture medium was collected and stored for analysis of extracellular (virion) HBV DNA after 0, 3, 6, and 9 days of treatment. The treated cells were lysed 24 hours following day 9 of treatment for the analysis of intracellular HBV genomic forms. The overall levels of HBV DNA (both extracellular and intracellular DNA) and the relative rate of HBV replication (intracellular DNA) were analyzed quantitatively. The analysis was performed using blot hybridization techniques and [^32P]-labeled HBV-specific probes. The HBV DNA levels were measured by comparison to known amounts of HBV DNA standards applied to every nitrocellulose membrane (gel or slot blot). An AMBIS beta scanner, which measures the radioactive decay of the hybridized probes directly from the nitrocellulose membranes, was used for the quantitative analysis. Standard curves, generated by multiple analyses, were used to correlate CPM measurements made by the beta scanner with relative levels of target HBV DNA. The levels of HBV virion DNA released into the culture medium were analyzed by a slot blot hybridization procedure. HBV DNA levels were then compared to those at day 0 to determine the effect of the test compound. A known positive drug was evaluated in parallel with test compounds in each test.
Determination of therapeutic concentrations (EC50 and EC90) and toxicity concentrations (IC50) were determined as previously described (90). Stock solutions of text drugs were prepared in DMSO. Culture medium was changed daily and analyzed for extracellular HBV DNA after nine days of continuous drug exposure. Extracellular HBV DNA was extracted from the culture media and analyzed by a slot blot hydridization technique, using a ^32P-labeled Eco RI HBV DNA fragment, as previously described (91), and quantitated via comparison to HBV standards on a nitrocellulose filter, using an AMBIS beta scanner. Toxicity was determined by measuring inhibition of neutral red dye uptake. […] Effective concentration values for individual agents are the mean of six cultures per concentration point. Toxicity values are the mean of three cultures per concentration point.

Hepatitis B Virus (HBV) [2] = test: HBV replication intermediates (RI, intracellular HBV DNA) in 2.2.15 cells; assay type: cell-based
Protocol: as §1

Hepatitis B Virus (HBV) [3] = test: HBV proteins and nucleic acids in 2.2.15 cells; assay type: cell-based; settings: Day 9, 2.2.15 cells; robustaflavone @10 μM
Protocol: Values of HBV proteins were determined by semi-quantitative EIA performed as previously described.^83 For the EIA analyses, test samples-were diluted (2- to 10-fold) so that the assay values produced were within the linear dynamic range of the EIA assays. Standard curves using serial dilutions of positive assay controls were included in each set of EIA analyses. HBV surface antigen ([…]), preSI protein, and HBc antigen ([…]) are released as extracellular products and were therefore analyzed in culture medium obtained 24 h following the last treatment dose of oligonucleotides or 2′, 3′-ddc. HBV core antigen (HBcAg) is an intracellular viral protein and was assayed in cell extracts produced by Triton-X-100 lysis.^83
Cultures for HBV RNA were maintained on 6-well plates, cultures for HBV virion DNA analyses were maintained on either 96- or 24-well plates, and cultures for all other HBV parameters were maintained on 24-well plates.
The concentrations of antiviral agents used in these studies approximates the EC50 values of the individual agents against intracellular HBV DNA replication intermediates (HBV RI). Cultures were treated with the indicated agents for 9 days using standard procedures. Values reported are the levels of the indicated HBV markers at the end of the treatment period (“DAY 9”) expressed as a percentage (±standard deviation (S.D.) of the average levels in the control cultures at the beginning of the treatment period (“DAY 0”). The method of expression permits an analysis of the variation of the HBV markers in the untreated (control) cultures over the course of the treatment period. HBV nucleic acid levels were measured by standard blot hydridization (dot, Southern, or Northern). HBV protein levels were measured by standard semi-quantitative EIA methods. Cultures for HBV RNA were maintained in 6-well culture plates. The levels of each of two major classes of HBV RNA transcripts are listed separately. Cultures for all other HBV markers were maintained in 24-well culture plates. For each treatment, a total of 4 separate cultures were used for the analysis of each HBV marker at both DAY 0 and DAY 9.
Determination of Mechanism of Action. Measurements of intracellular and extracellular HBV DNA, 3.6 kb and 2.1 kb mRNA fragments, and HBsAg, HBeAg and HBcAg protein markers were conducted as previously described (93).

HIV-1 RT = biological target: T1, HIV-1 RT (Human immunodeficiency virus type 1 group M subtype B, UniProt P03366); test: Anti-HIV-1 RT assay (recombinant enzyme); assay type: biochemical; settings: for inhibition at 200 µg/mL: read-out: Anti-HIV-1 RT % Inhibition at 200 μg/ml
T1 construct: made in house; host or cells: Escherichia coli

HCMV = HCMV CPE inhibition in HFF cells; settings: HFF Cells
[4] = read-out: EC50 (50% effective dose), HBV Virion, 2.2.15 cells, extracellular (virion) HBV DNA, 9 days treatment
[5] = read-out: EC90 (90% effective dose), HBV Virion, 2.2.15 cells, extracellular (virion) HBV DNA, 9 days treatment
[6] = Anti-HIV-1 RT IC50, values in parentheses or in words
[7] = values in parentheses or in words
[8] = HIV-1 RT IC50 (50% inhibition dose)

In the case of Nc1ccn([C@H]2CC[C@@H](CO)O2)c(=O)n1 [2′,3′-ddC, 2′,3′-dideoxycytosine, reference compound], the EC50 (Hepatitis B Virus (HBV) [1]; [4]) is reported as 1.8 µM, the EC50 (Hepatitis B Virus (HBV) [1]; read-out: EC50, concentration necessary to decrease HBV DNA levels by 50%, 2.2.15 cells, combinations: with respect to RF) is reported as 1.4 µM and the EC90 (Hepatitis B Virus (HBV) [1]; [5]) is reported as 94 µM. The “SI (CC50/EC90), HBV Virion” value (Hepatitis B Virus (HBV) [1]) was 28, the EC50 (Hepatitis B Virus (HBV) [2]; 2.2.15 cells, read-out: EC50, HBV replication intermediates (RI) (intracellular DNA)) was 2.4 µM and the “Viral Antigens: HBeAg” value (Hepatitis B Virus (HBV) [3]) was 88 ± 10 % of Day 0 Control. The “Viral Antigens: HBsAg” value (Hepatitis B Virus (HBV) [3]) was 90 ± 12 % of Day 0 Control, the “Viral Antigens: HbcAG” value (Hepatitis B Virus (HBV) [3]) was 91 ± 9 % of Day 0 Control and the “Viral DNA: Extracellular DNA” value (Hepatitis B Virus (HBV) [3]) was 1 ± 1 % of Day 0 Control. The “Viral DNA: Intracellular DNA” value (Hepatitis B Virus (HBV) [3]) was 6 ± 1 % of Day 0 Control, the “Viral mRNA: 3.6 kb and 2.1 kb mRNA (first column)” value (Hepatitis B Virus (HBV) [3]) was 94 ± 7 % of Day 0 Control and the “Viral mRNA: 3.6 kb and 2.1 kb mRNA (second column)” value (Hepatitis B Virus (HBV) [3]) was 87 ± 9 % of Day 0 Control.
For O=c1cc(-c2ccc(O)cc2)oc2cc(O)cc(O)c12 [Apigeriin, 4′,5,7-trihydroxyflavone, reference compound], the “activity against HIV-1 RT (in words)” value (HIV-1 RT) was “moderate activity”, the IC50 (HIV-1 RT; [6]) was 443 µM and the inhibition at 200 µg/mL (HIV-1 RT) was 72%.
For COc1ccc(C2CC(=O)c3c(OC)cc(OC)c(C4C(=O)c5c(OC)cc(OC)cc5OC4c4ccc(OC)cc4)c3O2)cc1 (stereo not drawn) [GB-1a Me6(14), GB-1a hexamethyl ether], the “activity against HIV-1 RT (in words)” value (HIV-1 RT) was “inactive” and the “Anti-HIV-1 RT IC50” value (HIV-1 RT; [7]) was “Inactive”.
In the case of O=C1C[C@@H](c2ccc(O)cc2)Oc2c1c(O)cc(O[C@@H]1O[C@H](CO)[C@@H](O)[C@H](O)[C@H]1O)c2[C@H]1C(=O)c2c(O)cc(O)cc2O[C@@H]1c1ccc(O)cc1 [GB-1a glucoside (15), GB-1a 7″-O-b-glucoside], the “activity against HIV-1 RT (in words)” value (HIV-1 RT) is reported as “no activity”, the “Anti-HIV-1 RT % Inhibition at 200 μg/ml” value (HIV-1 RT) is reported as 1.46% and the “Anti-HIV-1 RT IC50” value (HIV-1 RT; [7]) is reported as “Inactive”.
With O=C1C[C@@H](c2ccc(O)c(O)c2)Oc2c1c(O)cc(O)c2[C@H]1C(=O)c2c(O)cc(O)cc2O[C@@H]1c1ccc(O)cc1 [GB-2a(16), GB-2a] the “HIV-1 RT IC50 (50% inhibition dose)” value (HIV-1 RT) was 94.6 µg/mL, the “Anti-HIV-1 RT % Inhibition at 200 μg/ml” value (HIV-1 RT) was 96% and the IC50 (HIV-1 RT; values in parentheses or in words, read-out: Anti-HIV-1 RT IC50) was 170 µM.
For Nc1nc2c(ncn2COC(CO)CO)c(=O)[nH]1 [GVC, reference compound], the “HCMV CPE Inhibition EC50” value (HCMV) was 0.4 µg/mL.
For O=C1CC(c2ccc(O)cc2)Oc2cc(O)cc(O)c21 (stereo not drawn) [Naringenin, 4′,5,7-trihydroxyflavanone, reference compound], the “activity against HIV-1 RT (in words)” value (HIV-1 RT) was “slight inhibition” and the inhibition at 200 µg/mL (HIV-1 RT) was 34.9%.
With CC(=O)Oc1ccc(-c2cc(=O)c3c(OC(C)=O)c(-c4cc(-c5cc(=O)c6c(OC(C)=O)cc(OC(C)=O)cc6o5)ccc4OC(C)=O)c(OC(C)=O)cc3o2)cc1 [Robustaflavone Hexaacetate, robustaflavone hexaacetate] the “fold less active/potent than robustaflavone against HBV” value (Hepatitis B Virus (HBV) [1]) was “approximately three-fold”, the EC50 (Hepatitis B Virus (HBV) [1]; [4]) was 0.73 µM and the EC90 (Hepatitis B Virus (HBV) [1]; [5]) was 2.8 µM. For the same compound, the “SI (CC50/EC90), HBV Virion” value (Hepatitis B Virus (HBV) [1]) was greater than 360, the “SI (CC50/EC90), second value in parentheses” value (Hepatitis B Virus (HBV) [2]; Table 2, value in parentheses, not explained) was 163 and the EC50 (Hepatitis B Virus (HBV) [2]; Table 2, value in parentheses, not explained, read-out: EC50, second value in parentheses) was 3.9 µM. For the same compound, the EC90 (Hepatitis B Virus (HBV) [2]; Table 2, value in parentheses, not explained, read-out: EC90, second value in parentheses) was 11 µM.
COc1ccc(-c2cc(=O)c3c(OC)c(-c4cc(-c5cc(=O)c6c(OC)cc(OC)cc6o5)ccc4OC)c(OC)cc3o2)cc1 [Robustaflavone hexamethyl ether, hexa-O-methylrobustaflavone] was tested, and the “fold less active/potent than robustaflavone against HBV” value (Hepatitis B Virus (HBV) [1]) was roughly 10 fold, the EC50 (Hepatitis B Virus (HBV) [1]; [4]) was 2.9 µM and the EC90 (Hepatitis B Virus (HBV) [1]; [5]) was 28 µM. For the same compound, the “SI (CC50/EC90), HBV Virion” value (Hepatitis B Virus (HBV) [1]) was greater than 36.
With O=c1cc(-c2ccc(OS(=O)(=O)O)c(-c3c(OS(=O)(=O)O)cc4oc(-c5ccc(OS(=O)(=O)O)cc5)cc(=O)c4c3O)c2)oc2cc(OS(=O)(=O)O)cc(O)c12 [Robustaflavone tetrasulfate (17), robustaflavone-7,4′,7″,4′″-tetrasulfate K-salt] the “anti-HBV activity (in words)” value (Hepatitis B Virus (HBV) [1]; 2.2.15 cells) was “extremely effective”, the EC50 (Hepatitis B Virus (HBV) [1]; Hepatitis B virus, 216 h, read-out: EC50 (50% effective dose), HBV Virion, 2.2.15 cells, extracellular (virion) HBV DNA, 9 days treatment) was 0.4 µM and the EC90 (Hepatitis B Virus (HBV) [1]; Hepatitis B virus, 216 h, read-out: EC90 (90% effective dose), HBV Virion, 2.2.15 cells, extracellular (virion) HBV DNA, 9 days treatment) was 3.6 µM. For the same compound, the “SI (CC50/EC90), HBV Virion” value (Hepatitis B Virus (HBV) [1]) was 110, the IC50 (HIV-1 RT; [6]) was 144 µM and the IC50 (HIV-1 RT; [8]) was 168 µM. It also gave an inhibition at 200 µg/mL (HIV-1 RT) of 95.5%.
With O=C1c2c(O)cc(O)cc2O[C@@H](c2ccc(O)cc2)[C@@H]1c1c(O)cc(O)c2c(=O)cc(-c3ccc(O)cc3)oc12 [Volkensiflavone (5), volkensiflavone] the “activity against HIV-1 RT (in words)” value (HIV-1 RT) was “weakly active” and the inhibition at 200 µg/mL (HIV-1 RT) was 45.3%.
Compound COc1cccc2c1C(=O)c1c(O)c3c(c(O)c1C2=O)C[C@@](O)(C(C)=O)C[C@@H]3O[C@H]1C[C@H](N)[C@H](O)[C@H](C)O1 [daunomycin, reference compound] has an IC50 (HIV-1 RT; [8]) of 237 µM.
With COc1ccc([C@@H]2Oc3cc(OC)cc(OC)c3C(=O)[C@H]2c2c(OC)cc(OC)c3c(=O)cc(-c4ccc(OC)c(OC)c4)oc23)cc1 [morelloflavone heptamethyl ether (8), morelloflavone heptamethyl ether] the “activity against HIV-1 RT (in words)” value (HIV-1 RT) was “inactive”.
